Data on 19 molecules can be found in patent publication US9079895B2, “Morpholino compounds, uses and methods” (University of Dundee, priority 2012, dated 2015).

What all share (conditions): average of at least two experiments
The target in assay [1] is 5HT5 receptor (Homo sapiens (Human), UniProt P47898). Kind of assay: Secondary radioligand binding assay, 5HT5.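 Note: competitive radioligand displacement on membranes from transfected cell lines, incubated at room temperature in the dark, filter-retained radioactivity counted by liquid scintillation.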 On the set-up: key: “—” indicates that a binding interaction was not detected.
Sequence of 5HT5 receptor (P47898 whole entry): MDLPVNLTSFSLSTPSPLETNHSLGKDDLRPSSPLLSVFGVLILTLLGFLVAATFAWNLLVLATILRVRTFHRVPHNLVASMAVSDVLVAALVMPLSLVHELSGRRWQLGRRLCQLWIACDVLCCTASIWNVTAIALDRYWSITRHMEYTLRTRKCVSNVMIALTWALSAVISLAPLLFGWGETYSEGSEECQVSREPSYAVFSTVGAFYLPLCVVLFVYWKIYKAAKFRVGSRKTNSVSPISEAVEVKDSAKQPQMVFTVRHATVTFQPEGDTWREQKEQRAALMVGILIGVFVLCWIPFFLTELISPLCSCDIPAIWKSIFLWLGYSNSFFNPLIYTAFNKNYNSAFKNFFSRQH
Experimental: (§1) Assay Buffer: Standard Binding Buffer (50 mM Tris-HCl, 10 mM MgCl2, 1 mM EDTA, pH 7.4)
(§2) Membrane Fraction Source: Transiently or stably transfected cell lines (e.g., HEK293, COS, CHO, NIH3T3)
The target in assay [2] is 5HT6 receptor (Homo sapiens (Human), UniProt P50406). Put plainly: Secondary radioligand binding assay, 5HT6.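 Note: competition displacement of radioligand from membranes of transfected cell lines expressing the receptor, 1.5 h at room temperature, bound radioactivity counted by scintillation after filtration.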 Also noted: key: “—” indicates that a binding interaction was not detected.
Sequence of 5HT6 receptor (P50406 whole entry): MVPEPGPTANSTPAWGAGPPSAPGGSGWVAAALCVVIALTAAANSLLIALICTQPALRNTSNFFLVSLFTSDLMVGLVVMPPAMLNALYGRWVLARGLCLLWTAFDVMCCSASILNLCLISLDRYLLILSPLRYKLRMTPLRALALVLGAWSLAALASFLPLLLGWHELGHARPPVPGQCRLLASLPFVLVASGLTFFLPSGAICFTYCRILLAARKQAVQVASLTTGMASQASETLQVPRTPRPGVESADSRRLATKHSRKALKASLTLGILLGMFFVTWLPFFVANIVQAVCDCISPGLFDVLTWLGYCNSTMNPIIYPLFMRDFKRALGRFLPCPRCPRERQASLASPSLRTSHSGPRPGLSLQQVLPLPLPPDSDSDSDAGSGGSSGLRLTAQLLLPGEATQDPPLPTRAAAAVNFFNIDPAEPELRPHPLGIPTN
Experimental: as §1, §2
Assay [3] deals with 5HT7 receptor (Homo sapiens (Human), UniProt P34969). Kind of assay: Secondary radioligand binding assay, 5HT7.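 Note: competition of test compound with radioligand for binding to membranes from transfected cell lines, 1.5 h incubation at room temperature, filter-bound radioactivity read by liquid scintillation.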 On the set-up: key to Ki 5HT7: “—” indicates that a binding interaction was not detected.
Sequence of 5HT7 receptor (P34969 whole entry): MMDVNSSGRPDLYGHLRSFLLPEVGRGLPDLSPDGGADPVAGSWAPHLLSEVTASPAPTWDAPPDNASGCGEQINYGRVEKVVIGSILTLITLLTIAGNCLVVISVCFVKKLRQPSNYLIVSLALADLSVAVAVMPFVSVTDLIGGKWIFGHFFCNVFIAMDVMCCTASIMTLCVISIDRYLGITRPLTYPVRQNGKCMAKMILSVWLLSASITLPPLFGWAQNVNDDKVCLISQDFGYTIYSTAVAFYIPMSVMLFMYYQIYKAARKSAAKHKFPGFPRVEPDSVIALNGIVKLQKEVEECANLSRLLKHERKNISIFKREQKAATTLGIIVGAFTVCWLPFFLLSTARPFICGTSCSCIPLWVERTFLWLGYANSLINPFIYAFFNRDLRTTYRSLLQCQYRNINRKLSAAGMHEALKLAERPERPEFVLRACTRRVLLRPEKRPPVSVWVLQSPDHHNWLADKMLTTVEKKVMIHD
Experimental: as §1, §2
Assay [4] concerns the target Alpha1B adrenergic receptor (Homo sapiens (Human), UniProt P35368). Put plainly: Secondary radioligand binding assay, Alpha1B. On the set-up: key to Ki Alpha1B: “—” indicates that a binding interaction was not detected. The source says: 1. Secondary Radioligand Binding Assays The detailed experimental protocols for the radioligand and functional receptor assays are available on the NIMH PDSP website at http://pdsp.med.unc.edu/UNC-CH %20Protocol %20Book.pdf. Raw data (dpm) representing total radioligand binding (i.e. specific+non-specific binding) are plotted as a function of the logarithm of the molar concentration of the competitor (i.e. test or reference compound). […] C. Adrenergic Receptors: α1A, α1B, α2A, α2B, α2C, β1, β2, β3 Assay Buffers: For α1 receptors, α1 Binding Buffer (20 mM Tris-HCl, 145 mM NaCl, pH 7.4); for α2 receptors, α2 Binding Buffer (50 mM Tris-HCl, 5 mM MgCl2, pH 7.7); for β receptors, β Binding Buffer (50 mM Tris-HCl, 3 mM MnCl2, pH 7.7) Membrane Fraction Source: Transiently or stably transfected cell lines (e.g. HEK293, COS, CHO, NIH3T3) Protocol adapted from Arango et al. […] (1990), Gen. Psychiatry, 47: 1038-1047. The method is carried out in the manner described for the serotonin receptor assay above, except where described below. Eleven dilutions (5× assay concentration) of the test and reference (see Table 20) compounds are prepared in the appropriate buffer by serial dilution, as previously described. Radioligand is diluted to five times the assay concentration (see Table 21) in the appropriate buffer. […] Four rapid 500-μl washes are performed with chilled distilled water (for α1 and β receptors) or 0.1% polyethyleneimine (for α2 receptors) to reduce non-specific binding. Filters are placed in 6 ml scintillation tubes and allowed to dry overnight and the samples are treated to obtain data as described above. [table]

The target in assay [5] is dopamine D5 receptor (Homo sapiens (Human), UniProt P21918). Kind of assay: Secondary radioligand binding assay, D5. Also noted: key to Ki D5: “—” indicates that a binding interaction was not detected. On the procedure: 1. Secondary Radioligand Binding Assays
Sequence of dopamine D5 receptor (P21918 whole entry): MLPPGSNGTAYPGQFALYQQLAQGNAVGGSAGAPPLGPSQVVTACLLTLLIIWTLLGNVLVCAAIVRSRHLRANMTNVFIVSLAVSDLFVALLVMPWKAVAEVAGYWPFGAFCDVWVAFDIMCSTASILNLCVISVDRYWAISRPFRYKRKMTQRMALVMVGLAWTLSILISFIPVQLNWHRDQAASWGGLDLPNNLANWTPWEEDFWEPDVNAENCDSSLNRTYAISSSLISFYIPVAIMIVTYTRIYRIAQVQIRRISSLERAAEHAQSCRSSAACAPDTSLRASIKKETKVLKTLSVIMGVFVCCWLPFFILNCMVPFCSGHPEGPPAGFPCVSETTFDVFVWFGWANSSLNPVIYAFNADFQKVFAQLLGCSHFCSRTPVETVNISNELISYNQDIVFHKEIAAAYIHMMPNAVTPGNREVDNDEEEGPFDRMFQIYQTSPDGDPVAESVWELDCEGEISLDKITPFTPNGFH
The detailed experimental protocols for the radioligand and functional receptor assays are available on the NIMH PDSP website at http://pdsp.med.unc.edu/UNC-CH %20Protocol %20Book.pdf.
Radioligand is diluted to five times the assay concentration (see Table 18) in Standard Binding Buffer. Typically, the assay concentration of radioligand is a value between one half the KD and the KD of a particular radioligand at its target. 50 μl aliquots of radioligand are dispensed into the wells of a 96-well plate containing 100 μl of Standard Binding Buffer. Then, duplicate 50 μl aliquots of the test and reference compound dilutions are added.
The 250 μl reactions are incubated at room temperature and shielded from light (to prevent photolysis of light-sensitive ligands) for 1.5 hours, then harvested by rapid filtration onto Whatman GF/B glass fiber filters pre-soaked with 0.3% polyethyleneimine using a 96-well Brandel harverster. Four rapid 500 μl washes are performed with chilled Standard Binding Buffer to reduce non-specific binding. Filters are placed in 6 ml scintillation tubes and allowed to dry overnight. The next day, 4 ml of EcoScint scintillation cocktail (National Diagnostics) are added to each tube. The tubes are capped, labeled, and counted by liquid scintillation counting. […] The filter mats are dried, then scintillant is melted onto the filters and the radioactivity retained on the filters is counted in a Microbeta scintillation counter.
Raw data (dpm) representing total radioligand binding (i.e. specific+non-specific binding) are plotted as a function of the logarithm of the molar concentration of the competitor (i.e. test or reference compound).
B. Dopamine Receptors: D1, D2, D3, D4, D5 Assay Buffers: Dopamine Binding Buffer (50 mM NaCl, 50 mM HEPES-HCl, 5 mM MgCl2, 0.5 mM EDTA, pH 7.4) Membrane Fraction Source: Transiently or stably transfected cell lines (e.g. HEK293, COS, CHO, NIH3T3)
The method is carried out in the manner described for the serotonin receptor assay above. Eleven dilutions (5× assay concentration) of the test and reference (see Table 19) compounds are prepared in Dopamine Binding Buffer by serial dilution, as previously described. Radioligand is diluted to five times the assay concentration (see Table 20) in Dopamine Binding Buffer.

Sequence of Alpha1B adrenergic receptor (P35368 whole entry): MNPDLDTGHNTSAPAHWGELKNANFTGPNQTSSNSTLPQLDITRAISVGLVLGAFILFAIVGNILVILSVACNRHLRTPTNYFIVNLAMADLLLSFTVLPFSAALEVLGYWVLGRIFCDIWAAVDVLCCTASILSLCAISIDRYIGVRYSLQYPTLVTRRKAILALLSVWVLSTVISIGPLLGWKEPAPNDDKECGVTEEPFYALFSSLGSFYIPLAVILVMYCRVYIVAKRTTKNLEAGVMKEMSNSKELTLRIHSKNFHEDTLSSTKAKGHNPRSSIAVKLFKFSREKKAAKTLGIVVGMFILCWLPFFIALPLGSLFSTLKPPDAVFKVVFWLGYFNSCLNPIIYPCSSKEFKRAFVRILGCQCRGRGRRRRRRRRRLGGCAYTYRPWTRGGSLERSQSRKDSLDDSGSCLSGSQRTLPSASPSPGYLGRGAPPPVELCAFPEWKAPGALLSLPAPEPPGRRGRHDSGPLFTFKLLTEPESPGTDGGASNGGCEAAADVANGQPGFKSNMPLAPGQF

`O=C(CN1CCO[C@@H](COc2cccc(Cl)c2)C1)N1CCc2ccccc21` [Compound 22r, (R)-2-(2-((3-chlorophenoxy)methyl)morpholino)-1-(indolin-1-yl)ethanone]: the “Ki 5HT5” value in assay [1] is on record as “—”. Besides, in assay [2], the “Ki 5HT6” value is on record as “—”. In addition, the “Ki 5HT7” value in assay [3] is “—”. The “Ki Alpha1B” value in assay [4] is “—”. Besides, the “Ki D5” value in assay [5] is recorded as “—”.
Regarding `O=C(CN1CCO[C@H](COc2cccc(Cl)c2)C1)N1CCc2ccccc21` [Compound 22s, (S)-2-(2-((3-Chlorophenoxy)methyl)morpholino)-1-(indolin-1-yl)ethanone], the “Ki 5HT5” value in assay [1] is on record as “—”. The “Ki 5HT6” value in assay [2] is recorded as “—”. The “Ki 5HT7” value in assay [3] is recorded as “—”. Moreover, the “Ki Alpha1B” value in assay [4] was “—”. The “Ki D5” value in assay [5] was “—”.
As for `Clc1cccc(OC[C@H]2CN(CCN3CCc4ccccc43)CCO2)c1` [Compound 23r, (R)-2-((3-Chlorophenoxy)methyl)-4-(2-(indolin-1-yl)ethyl)morpholine], in assay [1], the “Ki 5HT5” value is “—”. Moreover, the “Ki 5HT6” value in assay [2] is recorded as “—”. Moreover, the “Ki 5HT7” value in assay [3] was “—”. For the same molecule, the “Ki Alpha1B” value in assay [4] is listed as “—”. For the same molecule, in assay [5], the “Ki D5” value is “—”.
As for `Clc1cccc(OC[C@@H]2CN(CCN3CCc4ccccc43)CCO2)c1` [Compound 23s, (S)-2-((3-chlorophenoxy)methyl)-4-(2-(indolin-1-yl)ethyl)morpholine], the “Ki 5HT5” value in assay [1] was “—”. In assay [2], the “Ki 5HT6” value is on record as “—”. Besides, the “Ki 5HT7” value in assay [3] was “—”. In assay [4], the Ki is 6.64 µM. Also, the “Ki D5” value in assay [5] was “—”.
Consider `COc1cccc(OC[C@@H]2CN(CC(=O)N3CCc4ccccc43)CCO2)c1` [Compound 24s, (S)-1-(Indolin-1-yl)-2-(2-((3-methoxyphenoxy)methyl)morpholino)ethanone], for which, in assay [1], the “Ki 5HT5” value is given as “—”. The “Ki 5HT6” value in assay [2] is reported as “—”. Moreover, the “Ki 5HT7” value in assay [3] is “—”. Further, in assay [4], the “Ki Alpha1B” value is given as “—”. Further, the “Ki D5” value in assay [5] is reported as “—”.
Turning to `COc1cccc(OC[C@@H]2CN(CCN3CCc4ccccc43)CCO2)c1` [Compound 25s, (S)-4-(2-(Indolin-1-yl)ethyl)-2-((3-methoxyphenoxy)methyl)morpholine], in assay [1], the “Ki 5HT5” value is listed as “—”. Further, in assay [2], the “Ki 5HT6” value is listed as “—”. Moreover, in assay [3], the “Ki 5HT7” value is given as “—”. The “Ki Alpha1B” value in assay [4] was “—”. Also, in assay [5], the affinity corresponds to a Ki of 8.53 µM.
Take `Cc1ncccc1OC[C@H]1CN(CCN2CCc3ccccc32)CCO1` [Compound 26r, (R)-4-(2-(Indolin-1-yl)ethyl)-2-(((2-methylpyridin-3-yl)oxy)methyl)morpholine]: the “Ki 5HT5” value in assay [1] is reported as “—”. Moreover, the “Ki 5HT6” value in assay [2] was “—”. Besides, in assay [3], the Ki was more than 10 µM. In addition, in assay [4], the “Ki Alpha1B” value is reported as “—”. The “Ki D5” value in assay [5] is given as “—”.
With `Cc1ncccc1OC[C@@H]1CN(CCN2CCc3ccccc32)CCO1` [Compound 26s, (S)-4-(2-(Indolin-1-yl)ethyl)-2-(((2-methylpyridin-3-yl)oxy)methyl)morpholine], the “Ki 5HT5” value in assay [1] is given as “—”. For the same molecule, the “Ki 5HT6” value in assay [2] is recorded as “—”. Besides, the “Ki 5HT7” value in assay [3] is “—”. The “Ki Alpha1B” value in assay [4] is reported as “—”. The “Ki D5” value in assay [5] was “—”.
With `Clc1cncc(OC[C@H]2CN(CCN3CCc4ccccc43)CCO2)c1` [Compound 27r, (R)-2-(((5-Chloropyridin-3-yl)oxy)methyl)-4-(2-(indolin-1-yl)ethyl)morpholine], the “Ki 5HT5” value in assay [1] is listed as “—”. Moreover, the “Ki 5HT6” value in assay [2] is “—”. The “Ki 5HT7” value in assay [3] is “—”. The “Ki Alpha1B” value in assay [4] was “—”. The “Ki D5” value in assay [5] is on record as “—”.
Consider `Clc1cncc(OC[C@@H]2CN(CCN3CCc4ccccc43)CCO2)c1` [Compound 27s, (S)-2-(((5-Chloropyridin-3-yl)oxy)methyl)-4-(2-(indolin-1-yl)ethyl)morpholine], for which the “Ki 5HT5” value in assay [1] is on record as “—”. Also, the “Ki 5HT6” value in assay [2] is recorded as “—”. Further, the “Ki 5HT7” value in assay [3] is “—”. The “Ki Alpha1B” value in assay [4] is given as “—”. The “Ki D5” value in assay [5] is given as “—”.
Take `Cc1ccc(OC[C@H]2CN(CCN3CCc4ccccc43)CCO2)cn1` [Compound 28r, (R)-4-(2-(Indolin-1-yl)ethyl)-2-(((6-methylpyridin-3-yl)oxy)methyl)morpholine]: the “Ki 5HT5” value in assay [1] is “—”. For the same molecule, in assay [2], the “Ki 5HT6” value is “—”. Moreover, the “Ki 5HT7” value in assay [3] is reported as “—”. Also, in assay [4], the “Ki Alpha1B” value is reported as “—”. In addition, in assay [5], the “Ki D5” value is “—”.
In the case of `Cc1ccc(OC[C@@H]2CN(CCN3CCc4ccccc43)CCO2)cn1` [Compound 28s, (S)-4-(2-(Indolin-1-yl)ethyl)-2-(((6-methylpyridin-3-yl)oxy)methyl)morpholine], in assay [1], the “Ki 5HT5” value is “—”. Further, the “Ki 5HT6” value in assay [2] is on record as “—”. Moreover, in assay [3], the “Ki 5HT7” value is given as “—”. The “Ki Alpha1B” value in assay [4] is recorded as “—”. In addition, the “Ki D5” value in assay [5] is given as “—”.
On to `Cc1ccnc(C)c1OC[C@H]1CN(CCN2CCc3ccccc32)CCO1` [Compound 29r, (R)-2-(((2,4-Dimethylpyridin-3-yl)oxy)methyl)-4-(2-(indolin-1-yl)ethyl)morpholine], for which the “Ki 5HT5” value in assay [1] is “—”. For the same molecule, the “Ki 5HT6” value in assay [2] is “—”. Besides, in assay [3], the “Ki 5HT7” value is reported as “—”. Also, the “Ki Alpha1B” value in assay [4] is recorded as “—”. Moreover, in assay [5], the “Ki D5” value is reported as “—”.
Regarding `Cc1ncccc1OC[C@@H]1CN(CC(=O)N2c3ccccc3CC2C)CCO1.Cl` (some centres unmarked) [Compound 60], the “Ki 5HT5” value in assay [1] was “—”. For the same molecule, the “Ki 5HT6” value in assay [2] is “—”. For the same molecule, the “Ki 5HT7” value in assay [3] is recorded as “—”. The “Ki Alpha1B” value in assay [4] is “—”. Besides, the “Ki D5” value in assay [5] is “—”.
For `Cc1ncccc1OC[C@@H]1CN(CC(=O)N2c3ccccc3C[C@H]2C)CCO1` [Compound 61], in assay [1], the “Ki 5HT5” value was “—”. For the same molecule, the “Ki 5HT6” value in assay [2] is reported as “—”. For the same molecule, in assay [3], the “Ki 5HT7” value is “—”. The “Ki Alpha1B” value in assay [4] is listed as “—”. Further, the “Ki D5” value in assay [5] is “—”.
Regarding `Cc1ncccc1OC[C@H]1CN(CC(=O)N2c3ccccc3CC2C)CCO1` (some centres unmarked) [Compound 62], the “Ki 5HT5” value in assay [1] is listed as “—”. Also, the “Ki 5HT6” value in assay [2] is listed as “—”. For the same molecule, in assay [3], the “Ki 5HT7” value is recorded as “—”. The “Ki Alpha1B” value in assay [4] is on record as “—”. Further, the “Ki D5” value in assay [5] is reported as “—”.
Regarding `Cc1ncccc1OC[C@H]1CN(CC(=O)N2c3ccccc3C[C@H]2C)CCO1` [Compound 63], in assay [1], the “Ki 5HT5” value was “—”. The “Ki 5HT6” value in assay [2] is reported as “—”. For the same molecule, in assay [3], the “Ki 5HT7” value was “—”. Further, in assay [4], the “Ki Alpha1B” value is given as “—”. Besides, in assay [5], the “Ki D5” value is given as “—”.
On to `CC1Cc2ccccc2N1C(=O)CN1CCO[C@H](COc2cccc(Cl)c2)C1` (some centres unmarked) [Compound 64], for which the “Ki 5HT5” value in assay [1] was “—”. For the same molecule, the “Ki 5HT6” value in assay [2] is on record as “—”. Also, the “Ki 5HT7” value in assay [3] is listed as “—”. The “Ki Alpha1B” value in assay [4] was “—”. Besides, the “Ki D5” value in assay [5] is given as “—”.
In the case of `CC1Cc2ccccc2N1C(=O)CN1CCO[C@@H](COc2cccc(Cl)c2)C1` (some centres unmarked) [Compound 65], the “Ki 5HT5” value in assay [1] is recorded as “—”. In assay [2], the “Ki 5HT6” value is “—”. In addition, the “Ki 5HT7” value in assay [3] was “—”. In addition, the “Ki Alpha1B” value in assay [4] is given as “—”. In assay [5], the “Ki D5” value was “—”.

A word on the Ki: it is a dissociation constant, usually derived from enzyme kinetics or from competition with a known ligand.
